Assay results reported in US20260356860A1, “2-SUBSTITUTED 3,4A,5,7,8,8A-HEXAHYDRO-4H-THIOPYRANO[4,3-DJPYRIMIDIN-4-ONES FOR WOUND TREATMENT” (priority 2022, published 2026).

Assays:
[1] = tested on: full thickness open excisional wounds; experiment: Full thickness open excisional wound healing study; format: in vivo, Yucatan Miniature Swine; settings: day 3 to day 22
Procedure: A 21-day full thickness open excisional wound healing study was conducted on Yucatan™ Miniature Swine (Sinclair BioResources, Auxvasse, Missouri, USA) to evaluate the efficacy of healing and local tissue reaction of compounds of Formula (I). Compounds and controls were topically administered on full thickness open excisional wounds once every other day (total 11 doses).
The negative control for this study was saline (0.9%). The tes compositions for these studies are described as follows.
The test composition in the full thickness open excisional wound studies for compounds without GO-HA (no GO-HA added) was a mixture with an overall concentration of 0.25 to 0.27 mg/mL of the respective compound in serum formulation as follows: compound (10 mg), butylene glycol (1.80 mL), polysorbate 20 (1.80 mL), phosphatidyl choline (0.44 g), ethanol (1.80 mL), ultra pure water (30 mL), and hydroxypropyl cellulose (0.285 g).
The test composition in the full thickness open excisional wounds studies for compounds with GO-HA (Compound+GO-HA) was a mixture with an overall concentration of 1.0 mg/mL of the respective compound and 1.0 mg/mL of GO-HA in serum formulation as follows: compound (35 mg), butylene glycol (1.8 mL), polysorbate 20 (1.8 mL), phosphotidyl choline (0.44 g), ethanol (1.8 mL), GO-HA (35 mg), ultra pure water (30 mL), and hydroxypropyl cellulose (0.285 g). […]

[2] = tested on: Full-thickness, 3rd degree burn wounds; experiment: 3rd degree burn wound healing study (60-day); format: in vivo, Yucatan minipig; settings: for burn wound healing rate versus saline control: about day 16 to day 30; for burn wound histology (H&E) versus saline and GO-HA: improved organized reticular collagen and rete ridge formation
Procedure: The test composition in the closed excisional wound and burn studies for compounds without GO-HA (no GO-HA added) was a mixture with an overall concentration of 0.20 to 0.25 mg/mL of the respective compound in serum formulation as follows: compound (4 mg), butylene glycol (0.80 mL), polysorbate 20 (0.40 mL), ultra pure water (18 mL), and hydroxypropyl cellulose (0.12 g).
The test composition in the closed excisional wound and burn studies for compounds with GO-HA (Compound+GO-HA) was a mixture with an overall concentration of 1.0 mg/mL of the respective compound and 0.5 mg/mL of GO-HA in serum formulation as follows: compound (18 mg), PEG 400 (0.8 mL), GO-HA (9 mg), ultra pure water (18 mL), and hydroxypropyl cellulose (0.12 g).
Full-thickness 60-day burn wound healing study. Full-thickness, 3rd degree burn wounds of 3×3 cm^2 size were created on the back of the Yucatan minipig (5 wounds on each side of the spine, 10 total per swine) by using a brass cylinder (circular cross-section, 3 cm diameter) that was preheated in an oven at 100° C. and applied to the dorsal skin with light pressure for 30 seconds. Debridement of the wounds occurred day 7 post-dose. Compounds were dosed topically three times a week (0.24 mL) for thirty days. At 30 day time-point, the wounds were photographed once a week and NO dosing of compounds conducted from day 31-60. On day 60 animals were sacrificed and tissue prepared for analysis.

8 mm ear punch wound = experiment: Rabbit ear punch: rate of ear closure; format: in vivo; settings: after day 4; phospholipid spray
Procedure: (§1) Compounds of Formula (I) were tested and compared to saline control in elastic cartilage regeneration tests. Rabbit ears were punched through and through with an 8 mm punch. 4 holes were punched in each ear of the specimen (four positions L1, L2, L3, and L4 in the left ear and four positions R5, R6, R7, and R8 in right ear). Saline was applied via a spray on the control specimen, Compound 8 was applied via a phospholipid spray on another specimen, and Compound 18 was applied via a phospholipid spray on yet another specimen. The phospholipid spray contained compound (45 mg), butylene glycol (2 mL), polysorbate 20 (2 mL), phosphotidyl choline (0.5 g), ethanol (2 mL), and ultra pure water (40 mL).
FIG. 4 provides photographs of the wounds after treatment with saline, compound 8, or compound 18 on Days 0 and 23. Ear punch area related to wound closure was measured at 2- to 3-day intervals from day 0 to day 39.

elastic cartilage = experiment: Elastic cartilage regeneration in rabbit ear punch wounds (stained cross sections, day 45); format: in vivo; settings: for average distance between opposing cartilage endplates: original 8 mm wound margin, saline 6 mm; for average cartilage growth upon closure of the wound: saline 2 mm; for average cartilage tissue regrowth: saline about 25%; for cartilage regeneration by histology: versus control
Procedure: as §1
At day 45, the tests were stopped and the tissue was processed. An embed cut was made across the center point of the healed wounds in each site (FIG. 7, top). A slide was used to obtain sectioned tissue sample for staining and imaging (FIG. 7, bottom).
After staining with either Safronin O or Trichrome Blue, the distance between the opposing cartilage endplates was measured. From the original 8 mm wound margin distance, the saline control averaged 6 mm of distance between opposing cartilage endplates (FIG. 8), or 2 mm of average cartilage growth upon closure of the wound (about 25% average cartilage tissue regrowth). Compounds of Formula (I) (Compound 8 and Compound 18) provided about 2-3 mm average distance between opposing cartilage endplates (FIG. 8), or […] of average cartilage growth upon closure of the wound (about 68-75% average cartilage tissue regrowth).
FIGS. 9-11 display the original 8 mm wound margin (top, two vertical gray lines) and in an inset (bottom left, curved gray line). FIGS. 9-11 show expanded views of the cartilage regeneration site where chondrocytes are newly formed within the wound margin. Comparing FIG. 10 (Compound 8) and FIG. 11 (Compound 18) to FIG. 9 (control), cartilage regeneration using compounds of Formula (I) was confirmed.

Row | SMILES | wound healing throughout the entire test [1] | burn wound healing rate versus saline control [2] | burn wound histology (H&E) versus saline and GO-HA [2] | rate of ear closure versus control (8 mm ear punch wound) | average distance between opposing cartilage endplates (elastic cartilage) | average cartilage growth upon closure of the wound (elastic cartilage) | average cartilage tissue regrowth (elastic cartilage) | cartilage regeneration by histology (elastic cartilage)
1 | O=c1[nH]c(-c2ccc(-c3ccc(Br)nc3)cc2)nc2c1CSCC2 [Compound 7, 2-(4-(6-bromopyridin-3-yl)phenyl)-3,5,7,8-tetrahydro-4H-thiopyrano [4,3-d]pyrimidin-4-one] | improved wound healing throughout the entire test | statistically significant improved burn wound healing rates | promoted regeneration of tissue (improved organized reticular collagen and rete ridge formation) and reduced scar formation | – | – | – | – | –
2 | CC(C)(OCCO)c1ccc(-c2nc3c(c(=O)[nH]2)CSCC3)cc1 [Compound 8, 2-(4-(2-(2-hydroxyethoxy)propan-2-yl)phenyl)-3,5,7,8-tetrahydro-4H-thiopyrano[4,3-d]pyrimidin-4-one] | improved wound healing throughout the entire test | statistically significant improved burn wound healing rates | promoted regeneration of tissue (improved organized reticular collagen and rete ridge formation) and reduced scar formation | improved the rate of ear closure over the control | 2-3 mm | 5.5-6 mm | 68-75% | newly formed chondrocytes are more numerous and larger than in the control
3 | COC(=O)NCCOC(C)(C)c1ccc(-c2nc3c(c(=O)[nH]2)CSCC3)cc1 [Compound 18, methyl (2-((2-(4-(4-oxo-3,5,7,8-tetrahydro-4H-thiopyrano[4,3-d]pyrimidin-2-yl)phenyl)propan-2-yl)oxy)ethyl)carbamate] | – | – | – | improved the rate of ear closure over the control | 2-3 mm | 5.5-6 mm | 68-75% | newly formed chondrocytes are more numerous and larger than in the control
